According to US10597378B2 (priority 2017, dated 2020):
pEC50: −log10 of the molar value. Where two headings read alike, the source gives them in different places.

Target: MOR (Homo sapiens, UniProt P35372)
Assay: cell-based
Set-up: expressed in transfected cells; host or cells: CHO-K1/MOR/Ga15 cells
Conditions: for FLIPR Ca2+ AUC: area under the [Ca2+]i fluorescence response curve, up to 90 s
Description: In an exemplary in vitro assay for identifying MOR agonists, cells that express a MOR are treated with a test compound in a cellular calcium fluorescent assay and calcium fluorescence intensity is then measured to determine whether the MOR is activated. A test compound is identified as a MOR agonist if the MOR is activated.
EC50 herein refers to the concentration of a compound that induces a response halfway between the baseline and the maximum after a specified exposure time. AUC refers to the area under the response curve, an indication of the compound's capability of activating a MOR.
One day before the assay, CORNING® black with clear flat bottom 96-well assay plates were coated with a 0.1 mg/mL Poly-L-Lysine solution. CHO-K1/MOR/Ga15 cells were suspended in the F12 medium and plated at a density of about 8×10^4 cells/well in […] medium. Cells were incubated in a humidified atmosphere of 10% CO2 at 37° C. overnight so as to reach an 80-90% confluent cell monolayer before the assay. On the day of the assay, 150 μL medium/well was removed from plate. […] Compounds and other reagents were dissolved in the assay buffer. […] The [Ca^2+]i fluorescence was measured up to 90 s after agonist injection.

[1] = CHO-K1/MOR/Ga15 cells, read-out: FLIPR Ca2+ EC50

MOR, sequence (P35372 whole entry): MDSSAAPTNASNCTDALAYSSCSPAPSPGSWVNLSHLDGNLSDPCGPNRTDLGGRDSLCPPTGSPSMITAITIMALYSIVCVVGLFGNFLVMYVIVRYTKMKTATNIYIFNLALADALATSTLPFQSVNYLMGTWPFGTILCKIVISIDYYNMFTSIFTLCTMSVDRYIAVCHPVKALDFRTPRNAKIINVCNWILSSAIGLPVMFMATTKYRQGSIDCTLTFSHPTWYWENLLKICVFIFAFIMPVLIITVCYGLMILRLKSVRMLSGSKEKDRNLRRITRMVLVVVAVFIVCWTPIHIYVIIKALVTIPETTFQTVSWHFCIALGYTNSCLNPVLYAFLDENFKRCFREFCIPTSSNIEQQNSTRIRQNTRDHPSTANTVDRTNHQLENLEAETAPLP

Compound | pEC50 [1] | FLIPR Ca2+ AUC | pEC50 (FLIPR Ca2+ EC50, CHO-K1/MOR/Ga15 cells) | pEC50 (read-out: FLIPR Ca2+ EC50) | pEC50
O=C(NCC1c2ccccc2CCN1S(=O)(=O)c1ccc(Br)cc1OC(F)(F)F)c1ccccc1 (centres unmarked) [Compound 24, N-[(2-{[4-Bromo-2-(trifluoromethoxy)phenyl]sulfonyl}-1,2,3,4-tetrahydro-1-isoquinolinyl)methyl]benzamide] | 5.25 | 9294 | – | – | –
O=C(NCC1NCCc2ccccc21)C1CCCCC1 (centres unmarked) [Compound 5, N-(1,2,3,4-Tetrahydro-1-isoquinolinylmethyl)cyclohexanecarboxamide] | 5.20 | 6142 | – | – | –
COc1ccccc1S(=O)(=O)N1CCc2ccccc2C1CNC(=O)C1CCCCC1 (centres unmarked) [Compound 14, N-({2-[(2-Methoxyphenyl)sulfonyl]-1,2,3,4-tetrahydro-1-isoquinolinyl}methyl)cyclohexanecarboxamide] | 4.65 | 3327 | – | – | –
O=C(NCC1NCCc2ccccc21)c1ccccc1OC(F)(F)F (centres unmarked) [Compound 56, N-(1,2,3,4-Tetrahydro-1-isoquinolinylmethyl)-2-(trifluoromethoxy)benzamide] | 5.48 | 7855 | – | – | –
O=C(NCC1NCCc2ccccc21)N1CCCCC1 (centres unmarked) [Compound 35, N-(1,2,3,4-Tetrahydro-1-isoquinolinylmethyl)-1-piperidinecarboxamide] | 5.48 | – | – | – | –
O=C(NCC1NCCc2ccccc21)c1cccc(Cl)c1 (centres unmarked) [Compound 53, 3-Chloro-N-(1,2,3,4-tetrahydro-1-isoquinolinylmethyl)benzamide] | 6.42 | 13149 | – | – | –
O=C(NCC1c2ccccc2CCN1S(=O)(=O)c1ccc(F)cc1C(F)(F)F)C1CCCCC1 (centres unmarked) [Compound 15, N-[(2-{[4-Fluoro-2-(trifluoromethyl)phenyl]sulfonyl}-1,2,3,4-tetrahydro-1-isoquinolinyl)methyl]cyclohexanecarboxamide] | 5.23 | 5153 | – | – | –
O=C(NCC1c2ccccc2CCN1S(=O)(=O)c1ccc(Br)cc1OC(F)(F)F)N1CCCCC1 (centres unmarked) [Compound 25, N-[(2-{[4-Bromo-2-(trifluoromethoxy)phenyl]sulfonyl}-1,2,3,4-tetrahydro-1-isoquinolinyl)methyl]-1-piperidinecarboxamide] | 5.56 | 10498 | – | – | –
Cc1cc(Br)ccc1S(=O)(=O)N1CCc2ccccc2C1CNC(=O)C1CCCCC1 (centres unmarked) [Compound 8, N-({2-[(4-Bromo-2-methylphenyl)sulfonyl]-1,2,3,4-tetrahydro-1-isoquinolinyl}methyl)cyclohexanecarboxamide] | > 5.00 | 3757 | 5.20 | – | –
O=C(NCC1c2ccccc2CCN1S(=O)(=O)c1ccc(Br)cc1F)C1CCCCC1 (centres unmarked) [Compound 12, N-({2-[ (4-Bromo-2-fluorophenyl)sulfonyl]-1,2,3,4-tetrahydro-1-isoquinolinyl}methyl)cyclohexanecarboxamide] | 5.02 | 7271 | – | – | –
Cc1cc(F)ccc1S(=O)(=O)N1CCc2ccccc2C1CNC(=O)C1CCCCC1 (centres unmarked) [Compound 16, N-({2-[(4-Fluoro-2-methylphenyl)sulfonyl]-1,2,3,4-tetrahydro-1-isoquinolinyl}methyl)cyclohexanecarboxamide] | 5.00 | 6213 | – | – | –
O=C(NCC1NCCc2ccccc21)c1ccc(OC(F)(F)F)cc1 (centres unmarked) [Compound 47, N-(1,2,3,4-Tetrahydro-1-isoquinolinylmethyl)-4-(trifluoromethoxy)benzamide] | – | – | – | 6.43 | –
Cc1ccc(C(=O)NCC2c3ccccc3CCN2CCCl)cc1 (centres unmarked) [Compound 64, N-{[2-(2-Chloroethyl)-1,2,3,4-tetrahydro-1-isoquinolinyl]methyl}-4-methylbenzamide] | 7.52 | – | – | – | –
O=C(NCC1c2ccccc2CCN1S(=O)(=O)c1ccc(Cl)cc1)C1CCCCC1 (centres unmarked) [Compound 17, N-({2-[(4-Chlorophenyl)sulfonyl]-1,2,3,4-tetrahydro-1-isoquinolinyl}methyl)cyclohexanecarboxamide] | – | 6144 | – | – | 5.22
O=C(NCC1NCCc2ccccc21)c1cccc(F)c1 (centres unmarked) [Compound 52, 3-Fluoro-N-(1,2,3,4-tetrahydro-1-isoquinolinylmethyl)benzamide] | 6.11 | 11425 | – | – | –
O=C(NCC1NCCc2ccccc21)c1ccc(F)cc1 (centres unmarked) [Compound 48, 4-Fluoro-N-(1,2,3,4-tetrahydro-1-isoquinolinylmethyl)benzamide] | – | – | – | 6.27 | –
O=C(NCC1c2ccccc2CCN1S(=O)(=O)c1ccc(Br)cc1Br)C1CCCCC1 (centres unmarked) [Compound 10, N-({2-[(2,4-Dibromophenyl)sulfonyl]-1,2,3,4-tetrahydro-1-isoquinolinyl}methyl)cyclohexanecarboxamide] | 5.48 | 7023 | – | – | –
O=C(NCC1NCCc2ccccc21)c1ccccc1 (centres unmarked) [Compound 45, N-(1,2,3,4-Tetrahydro-1-isoquinolinylmethyl)benzamide] | 6.12 | 8628 | – | – | –

Compound | pEC50 [1] | FLIPR Ca2+ AUC | pEC50 (FLIPR Ca2+ EC50, CHO-K1/MOR/Ga15 cells) | pEC50 (read-out: FLIPR Ca2+ EC50) | pEC50
O=C(NCC1c2ccccc2CCN1S(=O)(=O)c1ccc(Br)cc1OC(F)(F)F)C1CCCC1 (centres unmarked) [Compound 21, N-[(2-{[4-Bromo-2-(trifluoromethoxy)phenyl]sulfonyl}-1,2,3,4-tetrahydro-1-isoquinolinyl)methyl]cyclopentanecarboxamide] | 6.09 | – | – | – | –
O=C(NCC1NCCc2ccccc21)N1CCOCC1 (centres unmarked) [Compound 36, N-(1,2,3,4-Tetrahydro-1-isoquinolinylmethyl)-4-morpholinecarboxamide] | 5.09 | – | – | – | –
O=C(NCC1c2ccccc2CCN1S(=O)(=O)c1ccc(Br)cc1C(F)(F)F)C1CCCCC1 (centres unmarked) [Compound 7, N-[(2-{[4-Bromo-2-(trifluoromethyl)phenyl]sulfonyl}-1,2,3,4-tetrahydro-1-isoquinolinyl)methyl]cyclohexanecarboxamide] | 5.59 | 7697 | – | – | –
CCC1CCC(C(=O)NCC2NCCc3ccccc32)CC1 (centres unmarked) [Compound 40, 4-Ethyl-N-(1,2,3,4-tetrahydro-1-isoquinolinylmethyl)cyclohexanecarboxamide] | 5.95 | 10059 | – | – | –
O=C(NCC1c2ccccc2CCN1S(=O)(=O)c1ccc(Br)cc1OC(F)(F)F)N1CCCC1 (centres unmarked) [Compound 26, N-[(2-{[4-Bromo-2-(trifluoromethoxy)phenyl]sulfonyl}-1,2,3,4-tetrahydro-1-isoquinolinyl)methyl]-1-pyrrolidinecarboxamide] | 5.36 | 12484 | – | – | –
CC1CCCCC1C(=O)NCC1NCCc2ccccc21 (centres unmarked) [Compound 41, 2-Methyl-N-(1,2,3,4-tetrahydro-1-isoquinolinylmethyl)cyclohexanecarboxamide] | 5.00 | 5627 | – | – | –
Cc1ccc(C(=O)NCC2NCCc3ccccc32)c(C)c1 (centres unmarked) [Compound 60, 2,4-Dimethyl-N-(1,2,3,4-tetrahydro-1-isoquinolinylmethyl)benzamide] | 6.18 | 13375 | – | – | –
Cc1ccc(C(=O)NCC2c3ccccc3CCN2CC(C)C)cc1 (centres unmarked) [Compound 63, 4-Methyl-N-{[2-(2-methylpropyl)-1,2,3,4-tetrahydro-1-isoquinolinyl]methyl}benzamide] | 6.96 | 18418 | – | – | –
Cc1ccc(C(=O)NCC2c3ccccc3CCN2C)cc1 (centres unmarked) [Compound 61, 4-Methyl-N-[(2-methyl-1,2,3,4-tetrahydro-1-isoquinolinyl)methyl]benzamide] | 7.40 | 14757 | – | – | –
COC1CCC(C(=O)NCC2NCCc3ccccc32)CC1 (centres unmarked) [Compound 42, 4-Methoxy-N-(1,2,3,4-tetrahydro-1-isoquinolinylmethyl)cyclohexanecarboxamide] | 5.18 | 5538 | – | – | –
Cc1ccc(C(=O)NCC2NCCc3ccccc32)cc1C (centres unmarked) [Compound 58, 3,4-Dimethyl-N-(1,2,3,4-tetrahydro-1-isoquinolinylmethyl)benzamide] | – | – | – | 6.92 | –
O=C(NCC1c2ccccc2CCN1S(=O)(=O)c1ccc(Br)cc1OC(F)(F)F)C1CCCCC1 (centres unmarked) [Compound 6, N-[(2-{[4-Bromo-2-(trifluoromethoxy)phenyl]sulfonyl}-1,2,3,4-tetrahydro-1-isoquinolinyl)methyl]cyclohexanecarboxamide] | 5.95 | 15139 | – | – | –
Cc1ccc(C(=O)NCC2NCCc3ccccc32)cc1 (centres unmarked) [Compound 38, 4-Methyl-N-(1,2,3,4-tetrahydro-1-isoquinolinylmethyl)benzamide] | – | – | – | 6.85 | –
O=C(NCC1NCCc2ccccc21)c1ccc(Cl)cc1 (centres unmarked) [Compound 49, 4-Chloro-N-(1,2,3,4-tetrahydro-1-isoquinolinylmethyl)benzamide] | – | – | – | 6.64 | –
COc1ccccc1C(=O)NCC1NCCc2ccccc21 (centres unmarked) [Compound 55, 2-Methoxy-N-(1,2,3,4-tetrahydro-1-isoquinolinylmethyl)benzamide] | 5.48 | 4312 | – | – | –
O=C(NCC1c2ccccc2CCN1S(=O)(=O)c1ccc(Br)cc1OC(F)(F)F)C1CCC1 (centres unmarked) [Compound 27, N-[(2-{[4-Bromo-2-(trifluoromethoxy)phenyl]sulfonyl}-1,2,3,4-tetrahydro-1-isoquinolinyl)methyl]cyclobutanecarboxamide] | 5.87 | 13461 | – | – | –
CC1CCC(C(=O)NCC2NCCc3ccccc32)CC1 (centres unmarked) [Compound 39, 4-Methyl-N-(1,2,3,4-tetrahydro-1-isoquinolinylmethyl)cyclohexanecarboxamide] | 5.82 | 12657 | – | – | –
